Laboratory results from US20220330549A1, “USE OF N-BENZYLBENZAMIDE-BASED COMPOUND AS HERBICIDE” (Northwest A&F University, priority 2020, published 2022).

Tests used:
Format in all cases: in vivo
[1] = test system: Humulus scandens; assay: Herbicidal activity test for indoor pre-emergence soil treatment; settings: 150 g a.i./ha, visual inspection 21 days after treatment
Procedure, shortened: (§1)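 Pre-emergence test following NY/T 1155.3-2006: weed seeds were sown in moistened neutral sandy loam (≤2% organic matter) and covered with 0.5–2.0 cm of soil. After 24 h, the soil was sprayed with a 10% EC diluted in water at 150 g(a.i.)/ha. Damage was scored visually on a 1–9 scale at 21 days.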

[2] = test system: Acalypha australis; assay: Field test for weed control in a corn field; settings: 150 g a.i./ha, after treatment
Procedure, shortened: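 Herbicidal activity against weeds was assessed in corn plots by the GB/T 17980.42-2000 method. Corn at the 2–5 leaf stage received water sprays of 10% emulsifiable concentrates at 150 g(a.i.)/ha, four repeats per treatment over 20 m^2. A 25% mesotrione oil dispersion was the reference. Damage symptoms and severity were rated on levels 1-9 relative to weeds in the blank control area.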

[3] = test system: Solanum nigrum; assay: Field test for weed control in a corn field; settings: 150 g a.i./ha, 30 days after treatment
Procedure, shortened: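 In a corn field trial based on GB/T 17980.42-2000, 10% emulsifiable concentrates diluted in water were sprayed at 150 g(a.i.)/ha at the 2 to 5 leaf stage of corn. Each treatment used 20 m^2 plots and was repeated 4 times, with 25% mesotrione oil dispersion as the reference agent. Solanum nigrum damage was scored on a 1-9 scale against blank control plots.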

[4] = test system: nutgrass flatsedge; assay: Field test for weed control in a corn field; settings: 150 g a.i./ha, after treatment
Procedure, shortened: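 Herbicidal effect on nutgrass flatsedge was measured in a field planted with corn, using the GB/T 17980.42-2000 method. Emulsifiable concentrates (10%) in water were sprayed at 150 g(a.i.)/ha during the 2-leaf to 5-leaf corn stage, on 20 m^2 plots repeated 4 times. 25% mesotrione oil dispersion was the control agent. Activity was scored from 1 to 9 by weed remaining relative to blank control plots.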

[5] = test system: Portulaca oleracea; assay: Field test for weed control in a corn field; settings: 150 g a.i./ha, after treatment
Procedure, shortened: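 Post-emergence weed control was evaluated in a corn field by the GB/T 17980.42-2000 method. Emulsifiable concentrates (10%) in water were applied as sprays at 150 g(a.i.)/ha at the 2-5 leaf corn stage, in four replicate 20 m^2 plots. A 25% mesotrione oil dispersion served as control agent. Effects were graded 1-9 relative to weed remaining in blank control areas.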

[6] = test system: Chenopodium album; assay: Field test for weed control in a corn field; settings: 150 g a.i./ha, after treatment
Procedure, shortened: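 Field weed-control testing in corn, run per GB/T 17980.42-2000, scored Chenopodium album on a 1-9 level scale, where each level matches a percentage range of weed remaining relative to the blank control area. Sprays of 10% emulsifiable concentrates in water delivered 150 g(a.i.)/ha at the corn 2-leaf to 5-leaf stage on 20 m^2 plots, four replicates each. Mesotrione 25% oil dispersion served as reference.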

[7] = test system: Digitaria sanguinalis; assay: Field test for weed control in a corn field; settings: 150 g a.i./ha, after treatment
Procedure, shortened: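 Field trial in a corn field following GB/T 17980.42-2000. Test compounds were formulated as 10% emulsifiable concentrates, diluted in water and sprayed post-emergence at 150 g(a.i.)/ha when corn had 2 to 5 leaves, with 4 replicates on 20 m^2 plots. Control of Digitaria sanguinalis was scored on a 1-9 scale based on weed damage relative to the untreated blank area.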

[8] = test system: Convolvulus arvensis; assay: Field test for weed control in a corn field; settings: 150 g a.i./ha, after treatment
Procedure, shortened: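 Post-emergence herbicidal activity on Convolvulus arvensis was scored in a corn field on a 1-9 scale, based on symptoms and damage severity. Each level corresponds to the weed remaining as a percentage of the blank control area. Sprays of 10% emulsifiable concentrate at 150 g(a.i.)/ha went on at the corn 2–5 leaf stage, with four replicates of 20 m^2 per treatment.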

[9] = test system: green bristlegrass; assay: Field test for weed control in a corn field; settings: 150 g a.i./ha, after treatment
Procedure, shortened: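 Herbicidal activity against green bristlegrass was assessed in corn field plots of 20 m^2 per GB/T 17980.42-2000. Test agents, formulated as 10% emulsifiable concentrates, were applied in water at 150 g(a.i.)/ha at the corn 2 leaves to 5 leaves stage, repeated 4 times. A 25% mesotrione oil dispersion served as the control agent, and weed damage was rated on levels 1-9.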

[10] = test system: Barnyard grass; assay: Field test for weed control in a corn field; settings: 150 g a.i./ha, 30 days after treatment
Procedure, shortened: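 Herbicidal activity against barnyard grass was assessed in corn field plots of 20 m^2, with four replicates per treatment. Compounds were applied as water-diluted 10% emulsifiable concentrates at 150 g(a.i.)/ha at the 2-5 leaf corn stage, with 25% mesotrione oil dispersion as the reference agent. Damage was scored on a 1-9 scale against untreated blank plots.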

[11] = test system: goosegrass; assay: Field test for weed control in a corn field; settings: 150 g a.i./ha, after treatment
Procedure, shortened: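 In this field trial in corn, run per GB/T 17980.42-2000, test agents prepared as 10% emulsifiable concentrates were applied in water as sprays at 150 g(a.i.)/ha at the 2- to 5-leaf corn stage. Each treatment covered 20 m^2 and was repeated 4 times. Goosegrass control was scored 1-9 relative to weed remaining in blank control areas.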

[12] = test system: Amaranthus retroflexus; assay: Field test for weed control in a corn field; settings: 150 g a.i./ha, 30 days after treatment
Procedure, shortened: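 Post-emergence control of Amaranthus retroflexus was assessed in corn plots using the GB/T 17980.42-2000 method. Emulsifiable concentrates (10%) in water were applied by spraying at the 2- to 5-leaf crop stage on 20 m^2 plots, four replicates each, alongside a mesotrione 25% oil dispersion reference. Herbicidal activity was scored on 1-9 levels by weed amount relative to blank control areas.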

[13] = test system: Cyperaceae; assay: Post-emergence herbicidal activity test in a paddy field; set-up: key: level scale; higher level = more weed left vs blank control; settings: 150 g a.i./ha (penoxsulam control 250 g(a.i.)/h)
Procedure, shortened: (§2)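 Efficacy was visually estimated 15 and 30 days after spraying, grading weed coverage relative to an untreated neighbouring plot (level 2 = 0 to 2.5%, level 9 = 67.6 to 100%). Treatments were 150 g(a.i.)/ha from 10% emulsifiable concentrates applied at the 4-5 leaf rice stage, four repeats of 50 m^2 each.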

[14] = test system: Broadleaf weed; assay: as above; set-up: key: level scale; higher level = more weed left vs blank control; settings: 150 g a.i./ha (penoxsulam control 250 g(a.i.)/h)
Procedure, shortened: as §2

[15] = test system: Gramineae; assay: as above; set-up: key: level scale; higher level = more weed left vs blank control; settings: 150 g a.i./ha (penoxsulam control 250 g(a.i.)/h)
Procedure, shortened: as §2

[16] = test system: Digitaria sanguinalis; assay: Herbicidal activity test for indoor post-emergence spraying on stems and leaves; set-up: key: grade level by weed remaining vs blank control, e.g. 5 = 10.1-15%; settings: 150 g a.i./ha, visual inspection 21 days after treatment
Procedure, shortened: (§3)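 Greenhouse-grown weeds, post-emergence foliar spray (NY/T 1155.4-2006 method); visual scoring at 21 d post-treatment as levels vs. untreated blank control (e.g., level 5 = 10.1–15%, level 8 = 35.1–67.5% of control weed).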

[17] = test system: green bristlegrass; assay: as above; set-up: key: grade level by weed remaining vs blank control, e.g. 5 = 10.1-15%; settings: 150 g a.i./ha, visual inspection 21 days after treatment
Procedure, shortened: as §3

[18] = test system: Humulus scandens; assay: as above; set-up: key: grade level by weed remaining vs blank control, e.g. 5 = 10.1-15%; settings: 150 g a.i./ha, visual inspection 21 days after treatment
Procedure, shortened: as §3

[19] = test system: Piemarker; assay: as above; set-up: key: grade level by weed remaining vs blank control, e.g. 5 = 10.1-15%; settings: 150 g a.i./ha, visual inspection 21 days after treatment
Procedure, shortened: as §3

[20] = test system: Barnyard grass; assay: as above; set-up: key: grade level by weed remaining vs blank control, e.g. 5 = 10.1-15%; settings: 150 g a.i./ha, visual inspection 21 days after treatment
Procedure, shortened: as §3

[21] = test system: Amaranthus retroflexus; assay: as above; set-up: key: grade level by weed remaining vs blank control, e.g. 5 = 10.1-15%; settings: 150 g a.i./ha, visual inspection 21 days after treatment
Procedure, shortened: as §3

[22] = test system: Digitaria sanguinalis; assay: Herbicidal activity test for indoor pre-emergence soil treatment; set-up: key: 1-9 levels; higher = more weed remaining vs blank control; settings: 150 g a.i./ha, visual inspection 21 days after treatment
Procedure, shortened: as §1

[23] = test system: Amaranthus retroflexus; assay: as above; set-up: key: 1-9 levels; higher = more weed remaining vs blank control; settings: 150 g a.i./ha, visual inspection 21 days after treatment
Procedure, shortened: as §1

[24] = test system: green bristlegrass; assay: as above; set-up: key: level 1-9; higher = more weed remaining vs blank control; settings: 150 g a.i./ha, visual inspection 21 days after treatment
Procedure, shortened: as §1

[25] = test system: Piemarker; assay: as above; set-up: key: level 1-9; higher = more weed remaining vs blank control; settings: 150 g a.i./ha, visual inspection 21 days after treatment
Procedure, shortened: as §1

[26] = test system: Barnyard grass; assay: as above; set-up: key: level 1-9; higher = more weed remaining vs blank control; settings: 150 g a.i./ha, visual inspection 21 days after treatment
Procedure, shortened: as §1

SMILES | Herbicidal Activity Humulus scandens [1] | Post-emergence weed control effect, Acalypha australis [2] | Post-emergence weed control effect, Solanum nigrum [3] | Post-emergence weed control effect, Nutgrass flatsedge [4] | Post-emergence weed control effect, Portulaca oleracea [5] | Post-emergence weed control effect, Chenopodium album [6] | Post-emergence weed control effect, Digitaria sanguinalis [7] | Post-emergence weed control effect, Convolvulus arvensis [8] | Post-emergence weed control effect, Green bristlegrass [9] | Post-emergence weed control effect, Barnyard grass [10] | Post-emergence weed control effect, Goose grass [11] | Post-emergence weed control effect, Amaranthus retroflexus [12] | Herbicidal activity 15 days after treatment Cyperaceae [13] | Herbicidal activity 30 days after treatment Cyperaceae [13] | Herbicidal activity 15 days after treatment Broadleaf weed [14] | Herbicidal activity 30 days after treatment Broadleaf weed [14] | Herbicidal activity 15 days after treatment Gramineae [15] | Herbicidal activity 30 days after treatment Gramineae [15] | Herbicidal Activity Digitaria sanguinalis [16] | Herbicidal Activity Green bristlegrass [17] | further results
Cc1ccc(CNC(=O)c2cccc(C)c2)cc1 [Compound B15] | 3 (equivalent to 2.6 to 5% of the weed in the blank control area) | 1 | 1 | 2 (equivalent to 0 to 2.5% of the weed in the blank control area) | 1 | 1 | 2 (equivalent to 0 to 2.5% of the weed in the blank control area) | 2 (equivalent to 0 to 2.5% of the weed in the blank control area) | 2 (equivalent to 0 to 2.5% of the weed in the blank control area) | 1 | 2 (equivalent to 0 to 2.5% of the weed in the blank control area) | 1 | 1 | 2 (equivalent to 0 to 2.5% of the weed in the blank control area) | 1 | 1 | 2 (equivalent to 0 to 2.5% of the weed in the blank control area) | 1 | 1 | 1 | Herbicidal Activity Humulus scandens [18]: 1; Herbicidal Activity Piemarker [19]: 1; Herbicidal Activity Barnyard grass [20]: 1; Herbicidal Activity Amaranthus retroflexus [21]: 1; Herbicidal Activity Digitaria sanguinalis [22]: 1; Herbicidal Activity Amaranthus retroflexus [23]: 2 (equivalent to 0 to 2.5% of the weed in the blank control area); Herbicidal Activity Green bristlegrass [24]: 2 (equivalent to 0 to 2.5% of the weed in the blank control area); Herbicidal Activity Piemarker [25]: 1; Herbicidal Activity Barnyard grass [26]: 1
Cc1cccc(C(=O)NCc2cccc(F)c2)n1 [Compound B22] | 2 (equivalent to 0 to 2.5% of the weed in the blank control area) | 1 | 2 (equivalent to 0 to 2.5% of the weed in the blank control area) | 2 (equivalent to 0 to 2.5% of the weed in the blank control area) | 1 | 1 | 2 (equivalent to 0 to 2.5% of the weed in the blank control area) | 1 | 1 | 1 | 2 (equivalent to 0 to 2.5% of the weed in the blank control area) | 1 | 1 | 1 | 1 | 1 | 1 | 1 | 1 | 1 | Herbicidal Activity Humulus scandens [18]: 1; Herbicidal Activity Piemarker [19]: 1; Herbicidal Activity Barnyard grass [20]: 1; Herbicidal Activity Amaranthus retroflexus [21]: 1; Herbicidal Activity Digitaria sanguinalis [22]: 1; Herbicidal Activity Amaranthus retroflexus [23]: 1; Herbicidal Activity Green bristlegrass [24]: 1; Herbicidal Activity Piemarker [25]: 1; Herbicidal Activity Barnyard grass [26]: 1
